This note sets out measurements from PMC10254045, “Elaboration of the Effective Multi-Target Therapeutic Platform for the Treatment of Alzheimer’s Disease Based on Novel Monoterpene-Derived Hydroxamic Acids” (International Journal of Molecular Sciences, 2023).

As usually defined, the IC50 is the concentration that gives 50% inhibition.

Experiment [1] relates to 5xFAD transgenic mice brain mitochondria. Kind of experiment: Mitochondrial oxygen consumption rate of brain p2 fraction (Seahorse). Type of experiment: in vivo. To be noted: p2 fraction of 5xFAD mice treated for three weeks, vs 5xFAD. From the text:
As part of the in vivo testing of the biological activity of the leader compound, a transgenic mouse model with Alzheimer’s disease 5xFAD at the age of 13 months was used. This line expresses two human genes: APP (amyloid peptide precursor protein gene) with three types of mutations (Swedish (K670N, M671L), Florida (I716V) and London (V717I)), as well as the presenilin 1 gene with mutations (M146L and L286V) characteristic of this disease. Clinically healthy wildtype single-litter mice C57Bl6/j (n = 8) were used as a control group. Transgenic 5xFAD mice were randomly divided into two groups: (1) animals receiving intraperitoneal injections of hydroxamic acid 35a at a dose of 15 mg/kg (10% DMSO + NaCl) for three weeks—the 5xFAD + 35a group (n = 8) and (2) mice receiving an equivalent volume of solvent—the group 5xFAD (n = 8). […]
The analysis of the work of the complexes of the electron transport chain of mitochondria was carried out on the mitochondrial p2 fraction obtained from brain samples of animals of experimental groups. Mitochondrial respiration was determined by the rate of oxygen consumption by organelles using the Seahorse XFe96 cell metabolism analyzer (Seahorse Bioscience, North Billerica, MA, USA), in full compliance with the protocol described in [169].

The target of experiment [2] is T1, HDAC6 (Homo sapiens, UniProt Q9UBN7).
T1 construct: purchased Enzo Life Sciences
T1 sequence (Q9UBN7 1-1215): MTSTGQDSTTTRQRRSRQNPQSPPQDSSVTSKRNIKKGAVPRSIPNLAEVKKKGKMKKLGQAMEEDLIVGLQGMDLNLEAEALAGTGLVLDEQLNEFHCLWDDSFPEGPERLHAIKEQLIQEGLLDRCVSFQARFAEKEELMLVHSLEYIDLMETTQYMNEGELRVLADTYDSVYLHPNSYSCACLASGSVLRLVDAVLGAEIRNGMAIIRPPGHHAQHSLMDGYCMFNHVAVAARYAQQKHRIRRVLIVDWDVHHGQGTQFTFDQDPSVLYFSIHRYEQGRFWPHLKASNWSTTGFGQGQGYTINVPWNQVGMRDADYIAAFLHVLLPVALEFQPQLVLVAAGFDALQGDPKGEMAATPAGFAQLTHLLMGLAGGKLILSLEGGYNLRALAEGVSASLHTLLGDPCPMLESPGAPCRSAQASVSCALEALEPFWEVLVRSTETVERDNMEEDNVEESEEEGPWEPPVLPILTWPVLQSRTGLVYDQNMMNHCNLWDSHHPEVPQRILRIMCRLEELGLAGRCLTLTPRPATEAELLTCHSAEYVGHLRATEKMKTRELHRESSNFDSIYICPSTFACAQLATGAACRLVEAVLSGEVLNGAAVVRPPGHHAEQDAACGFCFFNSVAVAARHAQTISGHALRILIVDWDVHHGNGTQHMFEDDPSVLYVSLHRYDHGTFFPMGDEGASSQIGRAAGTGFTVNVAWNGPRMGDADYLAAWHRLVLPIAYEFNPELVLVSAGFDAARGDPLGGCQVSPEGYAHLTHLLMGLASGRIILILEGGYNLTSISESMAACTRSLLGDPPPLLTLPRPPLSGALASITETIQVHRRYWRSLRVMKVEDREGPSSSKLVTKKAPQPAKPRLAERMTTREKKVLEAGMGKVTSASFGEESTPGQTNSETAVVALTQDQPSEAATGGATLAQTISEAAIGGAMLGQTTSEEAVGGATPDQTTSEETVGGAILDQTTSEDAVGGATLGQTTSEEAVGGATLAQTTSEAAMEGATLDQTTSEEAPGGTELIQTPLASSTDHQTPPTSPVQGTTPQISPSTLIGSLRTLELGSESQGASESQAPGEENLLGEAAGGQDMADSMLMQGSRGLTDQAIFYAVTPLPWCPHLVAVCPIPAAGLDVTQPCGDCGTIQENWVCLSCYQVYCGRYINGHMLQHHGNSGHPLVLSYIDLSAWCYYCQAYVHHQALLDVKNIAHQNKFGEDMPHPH
Put plainly: Fluorimetric measurement of HDAC6 activity (FLUOR DE LYS kit). The experiment is classed as biochemical. To be noted: Table 1; read-out: HDAC6-Inhibitory Effect, IC50.

For experiment [3], the system named is 5xFAD transgenic mice brain. Put plainly: MDA level in brain samples (TBA test). Type of experiment: in vivo. The note with it: 21-day administration, 15 mg/kg; p = 0.001 vs 5xFAD. An excerpt:
As part of the in vivo testing of the biological activity of the leader compound, a transgenic mouse model with Alzheimer’s disease 5xFAD at the age of 13 months was used. This line expresses two human genes: APP (amyloid peptide precursor protein gene) with three types of mutations (Swedish (K670N, M671L), Florida (I716V) and London (V717I)), as well as the presenilin 1 gene with mutations (M146L and L286V) characteristic of this disease. Clinically healthy wildtype single-litter mice C57Bl6/j (n = 8) were used as a control group. […]
To determine the level of malondialdehyde in the brain of animals, the samples were homogenized in a buffer solution and subjected to a centrifugation procedure at 12,000 rpm for 10 min at 4 °C, after which the infusion fluid was collected for subsequent analysis. Quantitative determination of the protein was carried out as described earlier.
The content of malondialdehyde was determined using a modified TBA test. […] The optical density of the selected suprasetting fluid was measured using a multifunctional Cytation™3 flatbed analyzer (BioTek Instruments, Inc., Winooski, VT, USA) at λ = 540 nm.

`C=C(C)[C@@H]1CC=C(CNC(=O)/C=C/c2ccc(C(=O)NO)cc2)CC1` [Compound 35a, (S,E)-N-hydroxy-4-(3-oxo-3-(((4-(prop-1-en-2-yl)cyclohex-1-en-1-yl)methyl)amino)prop-1-en-1-yl)benzamide]: the “activity of complex IV (oxygen consumption rate), increase” value in experiment [1] (p < 0.0001) came out at 177.57%. For the same molecule, the “activity of complex II (oxygen consumption rate), increase” value in experiment [1] (p = 0.0025) stood at 57.30%. Moreover, the IC50 in experiment [2] is 3.85 ± 0.24 µM. Also, in experiment [3], the “MDA level in brain (increase in 5xFAD mice)” value is given as “reversed”.
